Consider 7 compounds from patent US20160355684A1, “ANTHRAQUINONE DYE USED FOR A COLOR FILTER OF A LCD” (DOW GLOBAL TECHNOLOGIES LLC, priority 2014, published 2016).

Common to all, as to assay type: physicochemical
Data set [1] in a line: Solubility of dye in PGMEA. The note with it: solvent PGMEA (propylene glycol monomethyl ether acetate).
The nature of data set [2]: Thermal stability of films (chromaticity difference ΔEab after baking). The note with it: for ΔEab after baking at 230° C. for 1 h: film of dye in alkaline soluble acrylic resin on glass, hard bake 230° C., air, smaller value = better heat resistance. As for the experimental part:
0.15 g of Dye 1, 1.35 g PGMEA and 1.00 g of alkaline soluble acrylic resin solution (MIPHOTO RPR4022, supplied from Miwan Commercial Co., Ltd., 25 to 35% of solid content in (methyl 3-methoxypropionate)) were mixed and stirred for overnight at room temperature using a shaker. The solution was filtered with a 0.45 μm Acrodisc CR PTFE filter to get rid of big particles. Then the filtered solution was spin coated onto a clean glass substrate with 400 rpm spin speed for 18 seconds. The obtained film was first dried at 90° C. under air atmosphere for 30 minutes, and then hard baked at 230° C. under air atmosphere for 1 hour. The CIE values (xyY values and lab values) and the UV-Vis were measured before and after the hard bake.
The obtained dry film was further baked at 230° C. under air for 1 hour to evaluate thermal stability of the film. Optical performance after baking (ΔEab value) was 1.8, and the one of after further baking was 2.7. A smaller ΔEab value indicates better heat resistance.
(4) Thermal Stability of Films (Chromaticity):
The wet film after spin coating is dried in oven at 90° C. for 30 minutes and then soft baked at 150° C. for 15 minutes. The chromaticity coordinates (L, a, b) are recorded with UltraScan Pro (Hunterlab) colorimeter. D65/10 light source is used and results are based on CIE Lab coordinates. After that the film is hard baked at target temperature (230° C.) for 1 hour and the new chromaticity coordinates (L′, a′, b′) are recorded with the method above. The thermal stability of a film is indicated by the difference of chromaticity coordinate after baking at 230° C. represented by the following formula;
ΔE=√{square root over ((L−L′)^2+(a−a′)^2+(b−b′)^2)}

Data set [3] in a line: Thermal stability of dyes (mass loss measured by TGA). The note with it: dye itself. As to the method:
(1) Thermal Stability of Dyes (Mass Loss Measured by TGA):
The thermal stability of dye itself was determined by the mass loss of dye measured by TGA under air atmosphere at 230° C. for 1 hour. This evaluation reflects chemical stability of the dye itself.

Take `CC(C[Si](C)(O[Si](C)(C)C)O[Si](C)(C)C)C(=O)OCCNc1ccc(NCCOC(=O)C(C)C[Si](C)(O[Si](C)(C)C)O[Si](C)(C)C)c2c1C(=O)c1ccccc1C2=O` (centres unmarked) [(QS), reference compound]: the “Solubility in PGMEA (wt %)” value in data set [1] is about 4.6 wt %. Also, the “ΔEab after baking at 230° C. for 1 h” value in data set [2] is 24.5 (color changed.

For `Cc1cc(OCCC[Si](C)(O[Si](C)(C)C)O[Si](C)(C)C)cc(C)c1Nc1ccc(Nc2c(C)cc(OCCC[Si](C)(O[Si](C)(C)C)O[Si](C)(C)C)cc2C)c2c1C(=O)c1ccccc1C2=O` [Dye 1], in data set [1], the “Solubility in PGMEA (wt %)” value is 17 wt %. In data set [2] (Dye 1 film, after baking), the “Optical performance after baking (ΔEab value)” value was 1.8. In addition, in data set [2] (Dye 1 film, further baked at 230° C. under air for 1 hour), the “ΔEab value after further baking” value was determined as 2.7. The “ΔEab after baking at 230° C. for 1 h” value in data set [2] came to 3.2. The “weight loss at 230° C. for 1 h in air from TGA” value (from here on “weight loss at 230° C. for 1 h”) in data set [3] worked out at 7.74%.

With `Cc1cc(C)c(Nc2ccc(Nc3c(C)cc(OCCC[Si](C)(C)O[Si](C)(C)O[Si](C)(C)CCCOc4cc(C)c(Nc5ccc(Nc6c(C)cc(C)cc6C)c6c5C(=O)c5ccccc5C6=O)c(C)c4)cc3C)c3c2C(=O)c2ccccc2C3=O)c(C)c1` [Dye 2], the “weight loss at 230° C. for 1 h” value in data set [3] is listed as 2.49%.

Take `Cc1cc(C)c(Nc2ccc(Nc3c(C)cc(OCCC[Si](C)(O[Si](C)(C)C)O[Si](C)(CCCOc4cc(C)c(Nc5ccc(Nc6c(C)cc(C)cc6C)c6c5C(=O)c5ccccc5C6=O)c(C)c4)O[Si](C)(C)C)cc3C)c3c2C(=O)c2ccccc2C3=O)c(C)c1` (centres unmarked) [Dye 2]: the “Solubility in PGMEA (wt %)” value in data set [1] worked out at 11.0 wt %. In addition, the “ΔEab after baking at 230° C. for 1 h” value in data set [2] is on record as 3.6. The “weight loss at 230° C. for 1 h” value in data set [3] came out at 6.79%.

Turning to `Cc1cc(C)c(Nc2ccc(Nc3c(C)cc(OCCC[Si](C)(C)O[Si](C)(C)O[Si](C)(C)CCCOc4cc(C)c(Nc5ccc(Nc6c(C)cc(C)cc6C)c6c5C(=O)c5ccccc5C6=O)c(C)c4)cc3C)c3c2C(=O)c2ccccc2C3=O)c(C)c1` [Dye 3], the “Solubility in PGMEA (wt %)” value in data set [1] amounted to 9.7 wt %. The “ΔEab after baking at 230° C. for 1 h” value in data set [2] came to 1.5.

As for `CC(C)Nc1ccc(NC(C)C)c2c1C(=O)c1ccccc1C2=O` [Solvent Blue 36, reference compound], in data set [1], the “Solubility in PGMEA (wt %)” value is recorded as 1.92 wt %. Besides, the “ΔEab after baking at 230° C. for 1 h” value in data set [2] is reported as 33 (color almost.

Regarding `Cc1cc(C)c(Nc2ccc(Nc3c(C)cc(C)cc3C)c3c2C(=O)c2ccccc2C3=O)c(C)c1` [Solvent Blue 104, 1,4-bis(mesitylamino)anthraquinone, reference compound], in data set [1], the “Solubility in PGMEA (wt %)” value amounted to 0.6 wt %. Moreover, the “ΔEab after baking at 230° C. for 1 h” value in data set [2] turned out to be 7.0.
